Laboratory results from ChEMBL document CHEMBL3885861, “Open TG-GATES”.

Organism: Rattus norvegicus
Test: Open TG-GATES - Regimen: Single
Format: toxicity, organism-based, Sprague-Dawley
Set-up: regimen Single, gender Male, age 6 weeks
Settings: in vivo, po, 0 mg/kg, route gavage, dose level Control; for APTT / Bas / Eos / Fbg / Hb / Ht / Lym / MCH / MCHC / MCV / Mono / Neu / PT / Plat / RBC / Ret / WBC: tissue Blood; for KIDNEY_L / KIDNEY_R / KIDNEY_TOTAL: tissue Kidney; for LIVER: tissue Liver; for A/G / ALP / ALT / AST / BUN / CRE / Ca / Cl / DBIL / GLC / IP / K / LDH / Na / PL / RALB / TBIL / TC / TG / TP / gamma-GTP: tissue Plasma

C=CCO [ALLYL ALCOHOL]
TERMINAL_BW (3 h): 221.5 g | APTT (3 h): 19.5 s | Bas (3 h): 0% | Eos (3 h): 1% | Fbg (3 h): 226.4 mg/dL | Hb (3 h): 13.4 g/dL | Ht (3 h): 39.2% | Lym (3 h): 73.8% | MCH (3 h): 20.8 pg | MCHC (3 h): 34.3% | MCV (3 h): 60.8 fL | Mono (3 h): 3% | Neu (3 h): 21.8% | PT (3 h): 12.2 s | Plat (3 h): 135.4 x10_4/uL | RBC (3 h): 645 x10_4/ul | Ret (3 h): 6.7% | WBC (3 h): 82.7 x10_2/uL | KIDNEY_L (3 h): 0.9 g | KIDNEY_R (3 h): 0.9 g | KIDNEY_TOTAL (3 h): 1.8 g | LIVER (3 h): 9.9 g | A/G (3 h): 1.4 | ALP (3 h): 946 IU/L | ALT (3 h): 41.2 IU/L | AST (3 h): 72.2 IU/L | BUN (3 h): 11.2 mg/dL | CRE (3 h): 0.4 mg/dL | Ca (3 h): 10.8 mg/dL | Cl (3 h): 102 meq/L | DBIL (3 h): 0.3 mg/dL | GLC (3 h): 192.4 mg/dL | IP (3 h): 9.1 mg/dL | K (3 h): 3.9 meq/L | LDH (3 h): 190.8 IU/L | Na (3 h): 140 meq/L | PL (3 h): 176.2 mg/dL | RALB (3 h): 3.2 g/dL | TBIL (3 h): 0.4 mg/dL | TC (3 h): 83.8 mg/dL | TG (3 h): 186.2 mg/dL | TP (3 h): 5.6 g/dL | gamma-GTP (3 h): 1.2 IU/L | TERMINAL_BW (6 h): 221.2 g | APTT (6 h): 19.3 s | Bas (6 h): 0% | Eos (6 h): 1% | Fbg (6 h): 235.8 mg/dL | Hb (6 h): 13.4 g/dL | Ht (6 h): 38.9% | Lym (6 h): 73.2% | MCH (6 h): 21.4 pg | MCHC (6 h): 34.5% | MCV (6 h): 62.1 fL | Mono (6 h): 4.2% | Neu (6 h): 21.6% | PT (6 h): 12.2 s | Plat (6 h): 124.2 x10_4/uL | RBC (6 h): 626.2 x10_4/ul | Ret (6 h): 7.3% | WBC (6 h): 115.2 x10_2/uL | KIDNEY_L (6 h): 0.9 g | KIDNEY_R (6 h): 1 g | KIDNEY_TOTAL (6 h): 1.9 g | LIVER (6 h): 9.6 g | A/G (6 h): 1.6 | ALP (6 h): 1049.2 IU/L | ALT (6 h): 33.2 IU/L | AST (6 h): 62.6 IU/L | BUN (6 h): 10 mg/dL | CRE (6 h): 0.4 mg/dL | Ca (6 h): 10.5 mg/dL | Cl (6 h): 102.8 meq/L | DBIL (6 h): 0.086 mg/dL | GLC (6 h): 199.6 mg/dL | IP (6 h): 8.9 mg/dL | K (6 h): 3.8 meq/L | LDH (6 h): 195.6 IU/L | Na (6 h): 140.8 meq/L | PL (6 h): 146 mg/dL | RALB (6 h): 3.4 g/dL | TBIL (6 h): 0.1 mg/dL | TC (6 h): 74.8 mg/dL | TG (6 h): 66.2 mg/dL | TP (6 h): 5.5 g/dL | gamma-GTP (6 h): 1 IU/L | TERMINAL_BW (9 h): 217.9 g | APTT (9 h): 18.7 s | Bas (9 h): 0% | Eos (9 h): 1% | Fbg (9 h): 219.6 mg/dL | Hb (9 h): 13.2 g/dL | Ht (9 h): 38.5% | Lym (9 h): 74.8% | MCH (9 h): 20.7 pg | MCHC (9 h): 34.4% | MCV (9 h): 60.2 fL | Mono (9 h): 3.2% | Neu (9 h): 20.4% | PT (9 h): 12.5 s | Plat (9 h): 132.1 x10_4/uL | RBC (9 h): 639.8 x10_4/ul | Ret (9 h): 6.9% | WBC (9 h): 99.3 x10_2/uL | KIDNEY_L (9 h): 1 g | KIDNEY_R (9 h): 0.9 g | KIDNEY_TOTAL (9 h): 1.9 g | LIVER (9 h): 9.1 g | A/G (9 h): 1.5 | ALP (9 h): 880.4 IU/L | ALT (9 h): 28.2 IU/L | AST (9 h): 62.2 IU/L | BUN (9 h): 12 mg/dL | CRE (9 h): 0.4 mg/dL | Ca (9 h): 10.4 mg/dL | Cl (9 h): 101.6 meq/L | DBIL (9 h): 0.08 mg/dL | GLC (9 h): 208.2 mg/dL | IP (9 h): 10.7 mg/dL | K (9 h): 3.6 meq/L | LDH (9 h): 158.4 IU/L | Na (9 h): 141 meq/L | PL (9 h): 148.4 mg/dL | RALB (9 h): 3.3 g/dL | TBIL (9 h): 0.1 mg/dL | TC (9 h): 72.8 mg/dL | TG (9 h): 81 mg/dL | TP (9 h): 5.6 g/dL | gamma-GTP (9 h): 1 IU/L | TERMINAL_BW (24 h): 231.2 g | APTT (24 h): 19.4 s | Bas (24 h): 0% | Eos (24 h): 1% | Fbg (24 h): 235.8 mg/dL | Hb (24 h): 13.1 g/dL | Ht (24 h): 38.5% | Lym (24 h): 78.2% | MCH (24 h): 20.5 pg | MCHC (24 h): 34.1% | MCV (24 h): 60.3 fL | Mono (24 h): 3% | Neu (24 h): 17.2% | PT (24 h): 12.2 s | Plat (24 h): 140 x10_4/uL | RBC (24 h): 640.6 x10_4/ul | Ret (24 h): 6.2% | WBC (24 h): 99.8 x10_2/uL | KIDNEY_L (24 h): 0.9 g | KIDNEY_R (24 h): 1 g | KIDNEY_TOTAL (24 h): 1.9 g | LIVER (24 h): 10.8 g | A/G (24 h): 1.5 | ALP (24 h): 963.4 IU/L | ALT (24 h): 35.8 IU/L | AST (24 h): 63.2 IU/L | BUN (24 h): 15.8 mg/dL | CRE (24 h): 0.4 mg/dL | Ca (24 h): 10.8 mg/dL | Cl (24 h): 102 meq/L | DBIL (24 h): 0.098 mg/dL | GLC (24 h): 196.4 mg/dL | IP (24 h): 7.1 mg/dL | K (24 h): 4 meq/L | LDH (24 h): 186.4 IU/L | Na (24 h): 140.8 meq/L | PL (24 h): 147.6 mg/dL | RALB (24 h): 3.3 g/dL | TBIL (24 h): 0.2 mg/dL | TC (24 h): 74.2 mg/dL | TG (24 h): 116 mg/dL | TP (24 h): 5.6 g/dL | gamma-GTP (24 h): 0.8 IU/L
